Molecules are shown by their SMILES. Some results are limits rather than exact numbers.

In general, IC50 refers to the concentration at which inhibition is half-maximal.

Assay [1] has as its target T1, DYRK1A (Rattus norvegicus, UniProt Q63470).
T1 construct: 6x histidine tag (HT)
Kind of assay: DYRK1A ELISA non-radioactive kinase assay. It counts as biochemical. Particulars: HT-PRD substrate, 100 μM ATP, 30 min at 30° C. As for the experimental part: Decant HT-PRD solution, wash the wells twice with Tris dilution buffer. Block each well with 150 μl BSA/PBST blocking buffer PBST (2% BSA in PBS with 0.25% Tween 20) for at least 1 hr at room temperature.
Decant the blocking solution and wash the wells 3-4 times with Tris dilution buffer. Perform DYRK1A phosphorylation in the well with 100 μl reaction buffer (25 mM HEPES, pH 7.4, 100 mM NaCl, 5 mM MgCl2, and 100 μM ATP) containing DYRK1A (eg. 5-10 ng purified HT-DYRK1A) and inhibitor, if necessary, for 30 min at 30° C. […] Use 80 μl of this mixture in the reaction will give final ATP concentration of 100 μM. ATP concentrations may be adjusted if necessary. • 2. Add 10 μl inhibitor. If the inhibitor is dissolved in DMSO, shake the plate gently for 1 min before adding kinase. • 3. Dilute DYRK1A in Tris dilution buffer to a concentration of 0.5 ng/l (prepare fresh every time). • 4. Initiate phosphorylation by adding 10 l DYRK1A to each well.
Decant the phosphorylation solution and wash the wells three times with PBST. Add 100 μl diluted antibody 3D3 (eg. 2˜3K dilution of 1.5 mg/ml stock in BSA blocking buffer) and incubate for 1 hr at room temperature.
Decant the primary antibody solution and wash the wells three times with PBST. Add 100 μl diluted AP-conjugated anti-mouse IgG (5K dilution of anti-mouse IgG-AP in BSA blocking buffer) and incubate for 1 hr at room temperature.
Color Development and Detection.
Decant the secondary antibody and wash the wells extensively (3-4 times) with AP buffer (10 mM Tris-HCl, pH 9.5, 10 mM NaCl, and 5 mM MgCl2). Add 100 μl p-nitrophenyl phosphate solution (1 mg/ml in AP buffer or 1 PNPP tablet per 5 ml 1× diethanolamine substrate buffer) and incubate the plate at 30° C. Yellow color should start appearing in a few minutes. OD at 405 nm usually can be read between 10-30 min.
(In an ELISA, binding on a coated surface is turned into a signal by an enzyme label.)

In assay [2] the target is DYRK1A (Homo sapiens, UniProt Q13627). Particulars: non-ATP competitive DYRK1A inhibitor; Bain, J., et al., Biochem J 408 (2007); cited from earlier work.
The subject of another assay is DS patients. Particulars: randomized, double-blinded placebo-controlled study, De la Torre et al. 2014; cited from earlier work.

For `Oc1cc(O)c2c(c1)O[C@H](c1cc(O)c(O)c(O)c1)[C@H](O)C2` [(2R,3R)-2-(3,4,5-trihydroxyphenyl)chroman-3,5,7-triol], the IC50 on DYRK1A [1] was over 100 µM.

For the molecule `COc1c(O)cc([C@H]2Oc3cc(O)cc(O)c3C[C@H]2OC(=O)c2cc(O)c(O)c(O)c2)cc1O` [(2R,3R)-2-(3,5-dihydroxy-4-methoxyphenyl)-5,7-dihydroxychroman-3-yl 3,4,5-trihydroxybenzoate], the IC50 on DYRK1A [1] worked out at 5.8 µM.

As to `O=C(O[C@@H]1Cc2c(O)cc(O)cc2O[C@@H]1c1ccc(O)c(O)c1)c1cc(O)c(O)c(O)c1` [(2R,3R)-2-(3,4-dihydroxyphenyl)-5,7-dihydroxychroman-3-yl 3,4,5-trihydroxybenzoate], the half-maximal inhibitory concentration (IC50) at DYRK1A [1] was determined as 0.52 µM.

In the case of `Oc1cc(O)c2c(c1)O[C@@H](c1cc(O)c(O)c(O)c1)[C@H](O)C2` [(2S,3R)-2-(3,4,5-trihydroxyphenyl)chroman-3,5,7-triol], the IC50 on DYRK1A [1] is over 100 µM.

As to `COc1c(O)cc(C(=O)O[C@@H]2Cc3c(O)cc(O)cc3O[C@@H]2c2cc(O)c(O)c(O)c2)cc1O` [(2R,3R)-5,7-dihydroxy-2-(3,4,5-trihydroxyphenyl)chroman-3-yl 3,5-dihydroxy-4-methoxybenzoate], on DYRK1A [1], the half-maximal inhibitory concentration (IC50) stood at 25.1 µM.

Turning to `Oc1cc(O)c2c(c1)O[C@H](c1ccc(O)c(O)c1)[C@H](O)C2` [(2R,3R)-2-(3,4-dihydroxyphenyl)chroman-3,5,7-triol], the half-inhibitory concentration (IC50) at DYRK1A [1] was over 100 µM.

Regarding `O=C(O[C@@H]1Cc2c(O)cc(O)cc2O[C@@H]1c1cc(O)c(O)c(O)c1)c1cc(O)c(O)c(O)c1` [EGCG, Epigallocatechin gallate], at DYRK1A [2], the IC50 was 0.33 µM. Besides, the “memory recognition, working memory and quality of life” value in the assay with DS patients is “improved memory recognition, working memory and quality of life”.

As to `Oc1cc(O)c2c(c1)O[C@@H](c1ccc(O)c(O)c1)[C@H](O)C2` [(2S,3R)-2-(3,4-dihydroxyphenyl)chroman-3,5,7-triol], the IC50 on DYRK1A [1] is over 100 µM.

`O=C(O[C@@H]1Cc2c(O)cc(O)cc2O[C@H]1c1ccc(O)c(O)c1)c1cc(O)c(O)c(O)c1` [(2S,3R)-2-(3,4-dihydroxyphenyl)-5,7-dihydroxychroman-3-yl 3,4,5-trihydroxybenzoate]: the IC50 at DYRK1A [1] stood at 0.18 µM.

The values are drawn from patent publication US20180243260A1, “METHODS OF TREATING COGNITIVE AND BEHAVIORAL IMPAIRMENT IN DOWN SYNDROME AND ALZHEIMERS DISEASE PATIENTS” (AVANTI BIOSCIENCES INC., priority 2016, published 2018).
